Measured values as given in patent US20200123146A1, “HETEROCYCLIC INTEGRIN AGONISTS” (GB006, Inc., priority 2016, published 2020).

Key:
[1] = biological target: T1, integrin CD11b/CD18 (K562 CD11b/CD18 cells) (Homo sapiens, UniProt P05107+P11215); experiment: K562 cell adhesion assay with immobilized ligands; assay type: cell-based; details: cell-based adhesion assay, K562 cells, 30 min at 37° C.
T1 construct: host or cells: K562 cells stably transfected with wild-type CD11b/CD18
Excerpt: (§1) Cell Lines. K562 cells (ATCC) stably transfected with wild-type integrin CD11b/CD18 (K562 CD11b/CD18) have been described previously (Park, etal. J Biomol Screen, 2007. 12(3): 406; Gupta, et al., Blood, 2007. 109(8): 3513; incorporated herein by reference in their entirety). Mutant CD11bE320A has been described previously (Alonso, et al. Curr Biol, 2002. 12(10): R340; incorporated herein by reference in its entirety). K562 cells stably transfected with mutant integrin CD11bE320A/CD18 (K562 E320A) were generated according to literature protocols (Park, supra; Gupta, supra). All cell lines were maintained in Iscove's Modified Dulbecco's Medium (IMDM) supplemented with 10% heat-inactivated fetal bovine serum, 50 IU/ml penicillin and streptomycin and 0.5 mg/ml G418.
(§2) K562 Cell Adhesion Assay. Cell adhesion assays with immobilized ligands were performed as previously described (Park, supra). Assays with all different K562 cell lines (K562, K562 CD11b/CD18 and K562 E320A) were performed in an identical fashion. Briefly, 384-well Highbind microtiter plates were coated with a 30 μL solution of ligand in Phosphate Buffered Saline, pH 7.4 containing 1 mM each of Ca^2+ and Mg^2+ ions (PBS^++) overnight at 4° C. Ligand Fg was coated at a concentration of 5-15 μg/mL and iC3b at 1-5 μg/mL. Heterodimer specific mAb IB4 was coated at 1-20 μg/mL. Subsequently, the non-specific sites in the wells were blocked by incubation with 1% non-fat milk in Tris Buffered Saline (TBS), pH 7.4, at room temperature for 1 h. Next, the wells were washed three times with TBS. K562 cells were suspended in the assay buffer (TBS containing 1 mM each of Ca^2+ and Mg^2+ ions (TBS^++)) and were transferred to the ligand-coated wells (30,000 cells/well). Stock solutions of the integrin agonists were prepared by dissolving the compounds in DMSO at a concentration of 2-10 mM. Final concentration of DMSO in the assay was approximately 1-2%. K562 cells were incubated in the presence of increasing concentration of integrin agonist for 30 min at 37° C. To dislodge non-adherent cells, the assay plates were gently inverted and kept in the inverted position for 30 min at room temperature. Cells remaining adherent were fixed using formaldehyde and were quantitated using imaging microscopy, as previously described (Park, supra).

[2] = Pharmacokinetic properties after PO/IV cassette dosing; assay type: in vivo, Balb/C mice; details: mouse, plasma; for Vd: read-out: Vdss; for AUC(0-t): PO 10 mg/kg and/or IV 1 mg/kg cassette dose; for bioavailability: head prints Rat, method Balb/C mice, PO 10 mg/kg, IV 1 mg/kg cassette dose, read-out: Rat F %
Procedure: Integrin agonists as described above were administered to Balb/C mice orally (PO; gavage; 10 mg/kg) and/or intravenously (IV; bolus through tail vein; 1 mg/kg) as a cassette dose with 2 to 3 compounds dosed at a time. A total of twelve mice between age 5-6 weeks with a body weight range of 24-28 g were used. The feeding regimen included 4 h fasting and the feed was provided 2 h after the dosage inoculation and water was provided ad libitum. The blood collection schedule for PO was at 0.25, 0.5, 1, 2, 4, 8,10 and 24 h, and for IV it was at 0.12, 0.25, 0.5, 1, 2, 4, 8 and 24 h post-dose administration under isoflurane anesthesia. For PO dosage, a suspension formulation in 0.2% Tween-80 and 99.8% methyl cellulose (0.5% in water) was prepared in milli-Q water; for IV dosage, a solution formulation in 5% DMSO, 5% Solutol:absolute alcohol (1:1, v/v), and 90% normal saline was prepared.
Dose preparation: For PO dosage, each integrin agonist was wetted with Tween-80 and triturated in a mortar and pestle, and then 0.5% of methyl cellulose was slowly added to make up the final volume for administration. For IV dosage, each integrin agonist was dissolved in DMSO and Solutol:absolute ethanol (1:1, v/v), vortexed, and combined with normal saline.
Methodology for preparation of CC/QC samples: 5 μL of working stock solution was spiked in to 45 μL of blank plasma to obtain the desired concentration in pre-labeled vials. To it was added 250 μL of 100% acetonitrile containing internal standard (tolbutamide: 100 ng/mL) and the sample was vortexed for 2 min followed by centrifugation for 5 min at 20,817×g at 4° C. Supernatant was separated and 5 μL of same was injected on LC-MS/MS.
Data Analysis: Na2EDTA plasma samples were analyzed using a fit-for-purpose LC-MS/MS method.

[3] = test system: CT26 cells; experiment: Syngeneic colon cancer mouse model using CT-26 cell line; assay type: in vivo, BALB/c mice; details: Day 21, female Balb/C, 10 mg/kg PO BID
Procedure: Compound 1, compound 8, and compound 12 were dosed at 10 mg/kg BID oral daily for 21 days in a syngeneic colon cancer mouse model using CT-26 cell line. CT26 cells were injected subcutaneously into right flank of female BALB/c mice, aged 7-8 weeks, on Day 1. Tumors were grown for 11 days and dosing was begun and dosed daily for 21 days. Tumor volume/growth (TV=Length×Width 2/2) was measured two times a week. Body weight was measured twice weekly. At the end of study tumor tissue and serum was collected and preserved. Morbidity and Mortality was monitored during the course of study.

[4] = test system: leukocytes; details: acute peritonitis in mice; cited from earlier work
[5] = upon vascular injury in rats; cited from earlier work
[6] = in vivo; cited from earlier work
[7] = in vivo; cited from earlier work; remark: listed apart in the source
[8] = mice; cited from earlier work
[9] = in vivo; cited from earlier work; remark: listed apart in the source
[10] = in vivo; cited from earlier work; remark: listed apart in the source
[11] = test system: tumor; details: in vivo; cited from earlier work
[12] = biological target: T2, integrin CD11b/CD18 (K562 CD11b/CD18 cells) (Homo sapiens, UniProt P11215); experiment: K562 cell adhesion assay with immobilized ligands; assay type: cell-based; details: for activity level in adhesion assay: compared with the other compounds in the study
T2 construct: host or cells: K562 cells stably transfected with wild-type CD11b/CD18
Excerpt: as §1, §2

[13] = Balb/C, IV 1 mg/kg and/or PO 10 mg/kg cassette dose

## O=C1/C(=C/c2ccc(-c3ccc(-c4nnn[nH]4)cc3)o2)SC(=S)N1Cc1ccccc1 [Compound 42, (Z)-5-((5-(4-(1H-tetrazol-5-yl)phenyl)furan-2-yl)methylene)-3-benzyl-2-thioxothiazolidin-4-one]
[1]
  EC50: 250 to 1000 nM
[2]; [13]
  Tmax: 0.5 h
  half-life: 0.77 h
  Vd: 1.15 L/kg
[2]; Balb/C
  AUC(0-t): 357 ng·h/mL
[2]
  bioavailability: 4.1%

## O=C(O)c1ccc(-c2ccc(/C=C3\OC(=S)N(Cc4ccc(F)cc4)C3=O)o2)cc1 [Compound 8, (Z)-4-(5-((3-(4-Fluorobenzyl)-4-oxo-2-thioxooxazolidin-5-ylidene)methyl)furan-2-yl)benzoic acid]
[1]
  EC50: 100 to 250 nM
[2]; [13]
  Tmax: 2 h
  half-life: 3.09 h
  Vd: 1.37 L/kg
[2]
  bioavailability: 8.82%
[3]
  % Reduction in Tumor Volume: 5.25%
  % Reduction in Tumor Weight: −3.08%

## O=C(O)c1ccc(-c2ccc(/C=C3\SC(=S)N(Cc4ccccc4)C3=O)o2)cc1 [LA1, (Z)-4-(5-((3-benzyl-4-oxo-2-thioxothiazolidin-5-ylidene)methyl)furan-2-yl)benzoic acid]
[4]
  recruitment of leukocytes: reduce recruitment of leukocytes
[5]
  neointimal thickening: reduce neointimal thickening
[6]
  hyperoxia-dependent lung injury: reduce hyperoxia-dependent lung injury
[7]
  liver fibrosis: reduce liver fibrosis
[8]
  renal ischemia/reperfusion injury: reduce renal ischemia/reperfusion injury
[9]
  allograft survival: increase allograft survival
[10]
  liver repair: enhance liver repair
[11]
  tumor growth and re-growth: reduced tumor growth and re-growth

## O=C(O)c1ccc(-c2ccc(/C=C3\SC(=S)N(Cc4ccc(F)cc4)C3=O)o2)cn1 [Compound 15, (Z)-5-(5-((3-(4-Fluorobenzyl)-4-oxo-2-thioxothiazolidin-5-ylidene)methyl)furan-2-yl)picolinic acid]
[1]
  EC50: 100 to 250 nM
[12]
  activity level in adhesion assay: some of the highest activity levels

## O=C(O)c1ccc(-c2ccc(/C=C3\OC(=S)N(Cc4ccccc4)C3=O)o2)cc1 [Compound 1, (Z)-4-(5-((3-Benzyl-4-oxo-2-thioxooxazolidin-5-ylidene)methyl)furan-2-yl)benzoic acid]
[1]
  EC50: 250 to 1000 nM
[12]; relative to compound 4
  fold more active in promoting adhesion than imidazolidine compound 4: greater than 7 fold
[12]; relative to compound 5
  fold more active in promoting adhesion than imidazolidine compound 5: greater than 40 fold
[2]; [13]
  Tmax: 2 h
  half-life: 1.97 h
  Vd: 1.5 L/kg
[2]; Balb/C
  AUC(0-t): 1060 ng·h/mL
[2]
  bioavailability: 18.6%
[3]
  % Reduction in Tumor Volume: −38.30%
  % Reduction in Tumor Weight: −37.15%

## O=C(O)c1ccc(-c2ccc(/C=C3\SC(=S)N(Cc4ccccc4)C3=O)o2)cn1 [Compound 12, (Z)-5-(5-((3-benzyl-4-oxo-2-thioxothiazolidin-5-ylidene)methyl)furan-2-yl)picolinic acid]
[1]
  EC50: 100 to 250 nM
[12]
  activity level in adhesion assay: some of the highest activity levels
[2]; [13]
  Cmax: 55 ng/mL
  Tmax: 0.5 h
  half-life: 1.39 h
[2]; Balb/C
  AUC(0-t): 176 ng·h/mL
[3]
  % Reduction in Tumor Volume: −4.42%
  % Reduction in Tumor Weight: 11.03%

## O=C(O)c1ccc(-c2cccc(/C=C3\SC(=S)N(Cc4ccccc4)C3=O)n2)cc1 [Compound 18, (Z)-4-(6-((3-Benzyl-4-oxo-2-thioxothiazolidin-5-ylidene)methyl)pyridin-2-yl)benzoic acid]
[1]
  EC50: 1000 to 10000 nM

## COC(=O)c1ccc(-c2cccc(/C=C3\SC(=S)N(Cc4ccccc4)C3=O)n2)cc1 [Compound 24, Methyl (Z)-4-(6-((3-benzyl-4-oxo-2-thioxothiazolidin-5-ylidene)methyl)pyridin-2-yl)benzoate]
[1]
  EC50: > 10000 nM

## O=C(O)c1ccc(-c2ccc(/C=C3\SC(=S)N(Cc4ccccc4O)C3=O)o2)cc1 [Compound 41, (Z)-4-(5-((3-(2-hydroxybenzyl)-4-oxo-2-thioxothiazolidin-5-ylidene)methyl)furan-2-yl)benzoic acid]
[1]
  EC50: 1000 to 10000 nM

## CCOC(=O)c1ccc(-c2ccc(CN3CC(=S)N(Cc4ccccc4)C3=O)o2)cc1 [Compound 7, Ethyl 4-(5-((3-benzyl-2-oxo-4-thioxoimidazolidin-1-yl)methyl)furan-2-yl)benzoate]
[1]
  EC50: > 10000 nM

## O=C(O)c1ccc(-c2ccc(/C=C3\SC(=S)N(Cc4ccc(F)cc4)C3=O)o2)cc1 [Compound 32, (Z)-4-(5-((3-(4-Fluorobenzyl)-4-oxo-2-thioxothiazolidin-5-ylidene)methyl)furan-2-yl)benzoic acid]
[1]
  EC50: 100 to 250 nM

## CCOC(=O)c1ccc(-c2ccc(CN3CC(=O)N(Cc4ccccc4)C3=O)o2)cc1 [Compound 6, Ethyl 4-(5-((3-benzyl-2,4-dioxoimidazolidin-1-yl)methyl)furan-2-yl)benzoate]
[1]
  EC50: > 10000 nM
